{"source": "patent US20080275028A1", "about": "(priority 2004, published 2008)", "target": "T1, alpha7 nicotinic acetylcholine receptor (Rattus norvegicus, UniProt Q05941)", "T1 construct": "expressed in transfected cells", "T1 sequence (Q05941 23-502)": "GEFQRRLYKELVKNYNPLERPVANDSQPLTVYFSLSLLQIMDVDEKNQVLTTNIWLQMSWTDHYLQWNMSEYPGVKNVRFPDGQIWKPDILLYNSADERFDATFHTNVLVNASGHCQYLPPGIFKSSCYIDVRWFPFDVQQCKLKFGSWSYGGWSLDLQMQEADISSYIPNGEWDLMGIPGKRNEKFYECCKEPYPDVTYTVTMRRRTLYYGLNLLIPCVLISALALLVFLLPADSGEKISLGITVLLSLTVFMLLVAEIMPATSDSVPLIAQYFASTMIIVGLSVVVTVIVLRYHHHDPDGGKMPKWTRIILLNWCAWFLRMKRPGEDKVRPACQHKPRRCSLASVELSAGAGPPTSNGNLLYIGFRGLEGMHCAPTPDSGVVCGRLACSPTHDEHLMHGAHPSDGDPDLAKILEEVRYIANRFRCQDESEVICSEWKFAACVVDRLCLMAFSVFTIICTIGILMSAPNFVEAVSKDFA", "experiment": "Functional FLIPR assay (calcium), alpha7 nAChR stably expressed in GH4C1 cells", "type": "cell-based", "conditions": "agonist, concentration range 0.001 to 30 microM", "description": "Rat GH4C1 cells were then transfected with the rat receptor, cloned and analyzed for functional alpha7 nicotinic receptor expression employing a FLIPR assay to measure changes in intracellular calcium concentrations.\nThe FLIPR system allows the measurements of real time Ca^2+-concentration changes in living cells using a Ca^2+ sensitive fluorescence dye (such as Fluo4). This instrument enables the screening for agonists and antagonists for alpha 7 nAChR channels stably expressed in GH4C1cells.\nGH4C1 cells stably transfected with rat-alpha7-nAChR (see above) were used. These cells are poorly adherent and therefore pretreatment of flasks and plates with poly-D-lysine was carried out. Cells are grown in 150 cm^2 T-flasks, filled with 30 ml of medium at 37° C. and 5% CO2.\nEC50 and IC50 values were calculated using the IDBS XLfit4.1 software package employing a sigmoidal concentration-response (variable slope) equation:\nY=Bottom+((Top-Bottom)/(1+((EC50/X) ̂ HillSlope))\nThe compounds were tested using the functional FLIPR primary screening assay employing the stable recombinant GH4C1 cell line expressing the alpha7 nAChR. Hits identified were validated further by generation of concentration-response curves."}
{"smiles": "C[N+]1(C)CCN(c2ccccc2)CC1", "note": "[DMPP]", "values": [{"measurement": "EC50", "value": "980 ± 470", "unit": "nM"}]}
